{"source": "a melting point compilation (Tetko et al.; mined from patent text by program, amines drawn as free bases though some values may be those of a salt)"}
{"units": {"melting point": "°C"}}
{"smiles": "CCCOCc1nc(C(C)(C)O)c(C(=O)O)n1Cc1ccc(-c2ccccc2-c2nnn[nH]2)cc1", "melting point": "166 to 168"}
{"smiles": "COc1cccc(C2(CNC(=O)Nc3c(C(C)C)cc(N)cc3C(C)C)CCN(c3ccccc3O)CC2)c1", "melting point": "207 to 208"}
{"smiles": "N/C(=C1/Sc2ccccc2C1=O)c1ccccc1Br", "melting point": "143 to 144"}
{"smiles": "CCOC(=O)C(=C1SCSCS1)c1ccc(Oc2ccccc2)cc1", "melting point": "134 to 135"}
{"smiles": "COc1cc2cc(-c3c(F)cccc3F)sc2c(Cl)c1Cl", "melting point": "173 to 174"}
{"smiles": "OCc1c(Br)c(Br)c(Br)c(CO)c1Br", "melting point": "248 to 252"}
{"smiles": "CCC(C)c1c(Cl)nc(NC=O)nc1Cl", "note": "(centres undefined)", "melting point": "92 to 93"}
{"smiles": "COc1ccc(N=C2C=CC(=O)C=C2)c(CO)c1", "melting point": "87 to 89"}
{"smiles": "COc1nscc1[N+](=O)[O-]", "melting point": "118 to 122"}
{"smiles": "Cc1ccccc1CN1CCC(n2c(C)c(-c3ccccc3)[nH]c2=O)CC1", "melting point": "218 to 220"}
{"smiles": "COc1ccc2c(c1)OCC(c1ccc(C(F)(F)F)cc1)C2c1ccc(OCCN2CCCC2)cc1", "note": "(centres undefined)", "melting point": "119 to 120"}
{"smiles": "COc1ccc2ccc3ccc(C=O)c4ccc1c2c34", "melting point": "135 to 136"}
{"smiles": "COc1ccnc(CCc2nc3cc(-c4ccc(S(=O)(=O)Nc5ccccc5)cc4)cnc3[nH]2)c1", "melting point": "231 to 233"}
{"smiles": "CCCc1csc(NS(=O)(=O)c2cccc(Cl)c2C)n1", "melting point": 169}
{"smiles": "CC(=O)NCC1CC(c2ccc(C3=CCN(C(=O)OC(C)(C)C)CC3)cc2)=NO1", "note": "(centres undefined)", "melting point": "117 to 120"}
{"smiles": "C=CCOC(=O)c1c(C)nc2c(cnn2CCOCC)c1N", "melting point": "38 to 40"}
{"smiles": "COC(=O)CCc1ccc(C(=O)O)cc1[N+](=O)[O-]", "melting point": "120 to 122"}
{"smiles": "COC(=O)c1ccc(OC(C)=O)c(-n2cccc2)c1", "melting point": "49 to 51"}
{"smiles": "Cc1ccc(-c2ccc3c(c2)C=C(C(=O)NC2CCN(CC4=CCCCCCCC4)CC2)CCO3)cc1", "melting point": "128 to 130"}
{"smiles": "CNCCOc1ccc(C(=O)NC)cc1", "melting point": "95 to 96"}
{"smiles": "COC(=O)c1n[nH]c(C(C)C)c1[N+](=O)[O-]", "melting point": "78 to 80"}
{"smiles": "CC(C(O)c1ccc2c(c1)CCCS2)N1CCC(NC(=O)c2ccccc2)CC1", "note": "(centres undefined)", "melting point": "200 to 201"}
{"smiles": "Cc1nc2c(N)nc3ccc(OCc4ccccc4)cc3c2n1CCCCNC(=O)Nc1ccccc1", "melting point": "202 to 204"}
{"smiles": "CCOCn1c(C(F)(F)F)c(C#N)c2ccc(Cl)c(Cl)c21", "melting point": "122 to 127"}
{"smiles": "O=c1[nH]c2ccccc2n1Cc1cccnc1", "melting point": 160}
{"smiles": "CCOc1nccnn1", "melting point": "95 to 99"}
{"smiles": "O=C=Nc1cc(NS(=O)(=O)CCl)c(Cl)cc1F", "melting point": 102}
{"smiles": "CC(C)(C(=O)O)c1oc2cccc-2cc1-c1ccccc1", "melting point": "169 to 171"}
{"smiles": "O=C1c2cccc3cccc(c23)C(=O)N1CCCCCO", "melting point": "96.5 to 97.5"}
{"smiles": "CCC(Nc1nc(NC(C)=O)nc(C(C)F)n1)c1ccccc1", "note": "(centres undefined)", "melting point": 118}
{"smiles": "N=C(N)NCc1ccc(N)c(I)c1", "melting point": "135 to 137"}
{"smiles": "COc1ccccc1OCC(=O)NCCO[N+](=O)[O-]", "melting point": "63 to 64"}
{"smiles": "O=C(O)CCCS(=O)(=O)NC(=O)CCC(F)(F)C(F)(F)C(F)(F)C(F)(F)C(F)(F)C(F)(F)F", "melting point": "175 to 180"}
{"smiles": "CCCC(O)(CCC)c1ccc(Cl)c2nc3n(c12)CCCN3c1ccc(Cl)cc1C(F)(F)F", "melting point": "200 to 202"}
{"smiles": "NCCNc1cc(-n2cccn2)nc(-c2cccs2)n1", "melting point": 147}
{"smiles": "CC(C)n1nc(-c2cc(Cl)c(N)nc2-c2ccccc2)ccc1=O", "melting point": "207 to 208"}
{"smiles": "CN(C)c1ccc(-c2n[nH]c3c2c(=O)n(-c2ccccc2)c2ncccc32)cc1", "melting point": "> 300"}
{"smiles": "COC(=O)CCc1oc(Sc2ccc(O)cc2)nc1-c1ccccc1", "melting point": "157 to 158"}
{"smiles": "CC1CNC(=Nc2ccccc2N2CCOCC2)N1", "note": "(centres undefined)", "melting point": "173 to 174"}
{"smiles": "CC(=O)N(C)c1ccc(Cl)c(COc2cccn3c(Br)c(C)nc23)c1Cl", "melting point": "201 to 204"}
{"smiles": "CN(C)C=CC(=O)c1cccnc1", "melting point": "66 to 67"}
{"smiles": "Cn1c(COc2ccc(CC3SC(=O)NC3=O)cc2)nc2ccccc21", "note": "(centres undefined)", "melting point": "230 to 231"}
{"smiles": "O=C(Cc1cccnn1)c1ccc(F)cc1F", "melting point": "116 to 118"}
{"smiles": "CN1CC(CCNC(=S)NC(=O)c2ccccc2)CC2c3cccc4[nH]cc(c34)CC21", "note": "(centres undefined)", "melting point": "205 to 207"}
{"smiles": "COC(=S)C1CCn2c(C(=O)c3ccccc3)ccc21", "note": "(centres undefined)", "melting point": 69}
{"smiles": "O=Cc1c[nH]c2ncc(-c3cccc(N4CCN(C(=O)C5CCNCC5)CC4)c3)nc12", "melting point": "> 300"}
{"smiles": "Cc1cc2c(ccc3ccsc32)c2ccccc12", "melting point": "130 to 131"}
{"smiles": "O=C1c2ccccc2C(=O)N1CCCCn1cnc(-c2ccc([N+](=O)[O-])cc2)c1", "melting point": "170 to 172"}
{"smiles": "O=C1CCCN1C(=O)NCCS(=O)c1ccccn1", "note": "(centres undefined)", "melting point": 120}
{"smiles": "CNc1ncc2c(n1)N(C1CCC(C(=O)O)CC1)C(=O)N(c1c(F)c(OC)cc(OC)c1F)C2", "note": "(centres undefined)", "melting point": 148}
{"smiles": "C=CCn1c(=O)c2c(nc(/C=C/c3cc(OC)c(OC(=O)c4ccccc4)c(OC)c3)n2C)n(CC=C)c1=O", "melting point": "179 to 180"}
{"smiles": "Cc1cc(C2=Nn3cc(C(F)(F)F)nc3SC2c2ccc(F)cc2)cc2c1OCC(=O)N2", "note": "(centres undefined)", "melting point": "136 to 138"}
{"smiles": "COc1ccc(-c2ncc(Cl)nc2-c2ccc(OC)cc2)cc1", "melting point": "126 to 127"}
{"smiles": "CSc1c(C)[nH]c2cccc([N+](=O)[O-])c12", "melting point": "148 to 150"}
{"smiles": "CCCOc1ccccc1-c1nc2nc(N(CCC)CCC)ncc2c(=O)[nH]1", "melting point": "123 to 124"}
{"smiles": "O=C1OC(CCCN2CCN(c3ccccn3)CC2)CN1c1ccccc1", "note": "(centres undefined)", "melting point": "123 to 125"}
{"smiles": "O=c1[nH]c(=O)n(C2CC(F)C(COC(c3ccccc3)(c3ccccc3)c3ccccc3)O2)cc1C(I)=CI", "note": "(centres undefined)", "melting point": 58}
{"smiles": "O=C1OCC(c2ccc(Cl)cc2)C1CSCc1ccccc1", "note": "(centres undefined)", "melting point": "66 to 69"}
{"smiles": "COc1ccc(-c2c(O)c3ccccc3[nH]c2=O)cc1OC", "melting point": "312 to 314"}
{"smiles": "CCCCCCCCCCCCCCOc1cccc(C(=O)N(CC(=O)OC)CC(=O)OC)c1", "melting point": "< 23"}
{"smiles": "Cc1ccc(-n2cnc3nncc-3c2N)cc1", "melting point": "> 300"}
{"smiles": "CC(=O)SCC(Cc1ccccc1)C(=O)Nc1ccc(Cl)c(C(=O)O)c1", "note": "(centres undefined)", "melting point": "163 to 165"}
{"smiles": "COc1cccc(-c2cc(NC(=O)CC(=O)C(F)(F)F)[nH]n2)c1", "melting point": "107 to 110"}
{"smiles": "CC(C)C(NC(=O)N(C)Cc1ccccn1)C(=O)N(C(=O)C(NC(=O)N(C)Cc1nccs1)C(C)C)C(Cc1ccccc1)C(O)CCCc1ccccc1", "note": "(centres undefined)", "melting point": "158 to 160"}
{"smiles": "COC(=O)c1cc(C)cc(-c2cccs2)c1NS(=O)(=O)c1ccc(OC)cc1", "melting point": 141}
{"smiles": "COc1ccc(COc2ccc(N)cc2)cc1", "melting point": "118 to 120"}
{"smiles": "CCCOC(=O)CS(=O)(=O)C=C1SC=CS1", "melting point": "141 to 142"}
{"smiles": "COc1nc2ccc(Cl)cc2nc1Cl", "melting point": "113 to 114"}
{"smiles": "NC(=O)C(F)(F)C(O)(Cn1cncn1)c1ccccc1", "note": "(centres undefined)", "melting point": "160 to 161"}
{"smiles": "Cn1cc(/C=C/c2ccc3ccccc3n2)cc1C(=O)O", "melting point": "> 230"}
{"smiles": "CCN(CC)CCOc1cccc2c1c1cc(Cl)ccc1n2Cc1ccc(F)cc1", "melting point": "99 to 99.5"}
{"smiles": "CCOC(=O)c1cc2cc(OCCCOC)cc([N+](=O)[O-])c2[nH]1", "melting point": "94 to 95"}
{"smiles": "O=C1c2cc(OC(F)F)ccc2CN1c1ccc2c(c1)CCC2", "melting point": "137 to 139"}
{"smiles": "COC(=O)c1c(O)c2cc(OCc3ccccc3)ccc2c(=O)n1CC(C)C", "melting point": "109 to 110"}
